Measurements taken from BindingDB's records for doi:10.1111/j.1747-0285.2012.01367.x (Peking University Health Science Center, 2012).

Target: Beta-secretase 1 (Homo sapiens, UniProt P56817)
Test: BACE-1 Inhibiiton Assay
Protocol: Beta-Secretase inhibition evaluations were carried out using a fluorescence resonance energy transfer (FRET) assay kit supplied by PanVera (kit P2985).

Sequence of Beta-secretase 1 (P56817 whole entry): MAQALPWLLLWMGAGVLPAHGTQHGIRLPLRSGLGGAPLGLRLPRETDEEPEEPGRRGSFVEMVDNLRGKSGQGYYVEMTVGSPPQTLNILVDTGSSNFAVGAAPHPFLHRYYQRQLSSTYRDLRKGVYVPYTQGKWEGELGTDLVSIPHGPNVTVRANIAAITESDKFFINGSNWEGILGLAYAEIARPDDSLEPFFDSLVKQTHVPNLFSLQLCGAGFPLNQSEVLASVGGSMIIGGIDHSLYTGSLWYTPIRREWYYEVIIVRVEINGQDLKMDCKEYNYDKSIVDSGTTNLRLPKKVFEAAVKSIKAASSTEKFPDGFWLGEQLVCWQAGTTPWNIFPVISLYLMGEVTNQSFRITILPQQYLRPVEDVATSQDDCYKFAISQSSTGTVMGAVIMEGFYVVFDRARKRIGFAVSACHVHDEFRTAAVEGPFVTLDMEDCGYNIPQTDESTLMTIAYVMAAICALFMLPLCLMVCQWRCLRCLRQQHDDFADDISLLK

Row | IC50 | Structure (SMILES)
1 | 4760 nM | COc1ccc(-c2nc(SCC(=O)Nc3nc(-c4ccccc4)cs3)[nH]c(=O)c2C#N)cc1 [B51]
2 | 310 nM | O=C(NCc1ccc2c(c1)OCO2)c1cnc2cc(S(=O)(=O)Nc3cccc(C(F)(F)F)c3)ccc2c1O [B53]
